# Measurements as given in patent publication US20260083864A1, “CONTRAST AGENTS FOR USE IN DIAGNOSTIC COMPUTED TOMOGRAPHY IMAGING” (Bayer Aktiengesellschaft, priority 2022, published 2026).
# Key:
# OATP1B3 = biological target: T1, OATP1B3 (Homo sapiens, UniProt Q9NPD5); assay: Uptake into stable transfected OATP1B3 HEK 293 cells; type: cell-based; details: for Uptake into OATP1B3-HEK 293 cells: 40 min incubation, relative to RC1 (Gd-EOB-DTPA); for Inhibition Rifampicine: uptake into OATP1B3-HEK 293 cells
# T1 sequence (Q9NPD5 1-702): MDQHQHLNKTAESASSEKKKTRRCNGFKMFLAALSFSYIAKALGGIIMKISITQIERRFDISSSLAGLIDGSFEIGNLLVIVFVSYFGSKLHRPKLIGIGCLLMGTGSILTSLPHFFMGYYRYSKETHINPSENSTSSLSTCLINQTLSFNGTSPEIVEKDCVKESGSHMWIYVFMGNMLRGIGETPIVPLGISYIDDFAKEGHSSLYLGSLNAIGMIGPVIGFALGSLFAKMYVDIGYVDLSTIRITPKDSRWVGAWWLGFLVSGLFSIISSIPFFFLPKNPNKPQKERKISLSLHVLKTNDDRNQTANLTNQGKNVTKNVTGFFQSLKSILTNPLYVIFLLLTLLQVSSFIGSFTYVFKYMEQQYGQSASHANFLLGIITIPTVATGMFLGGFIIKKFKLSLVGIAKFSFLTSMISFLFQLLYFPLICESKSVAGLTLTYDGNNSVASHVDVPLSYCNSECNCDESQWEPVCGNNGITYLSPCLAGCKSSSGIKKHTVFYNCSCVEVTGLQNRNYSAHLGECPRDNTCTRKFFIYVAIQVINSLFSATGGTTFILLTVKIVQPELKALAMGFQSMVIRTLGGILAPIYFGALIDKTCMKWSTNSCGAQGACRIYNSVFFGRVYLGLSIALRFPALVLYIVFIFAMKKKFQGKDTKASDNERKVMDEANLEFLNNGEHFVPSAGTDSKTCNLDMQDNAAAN
# How it was run: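 HEK 293 cells stably transfected with human OATP1B3 were incubated for 40 min with test items at 100 μM final in transport buffer, in triplicate, then washed with cold PBS. Gadoxetate (Gd-EOB-DTPA) served as the reference standard on the same plate.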
# [1] = Complex stability (transmetallation) against Zn2+ in phosphate buffer; details: 72 hours, 2.5 mM Zn^2+, 26 mM phosphate buffer, 37° C., pH 7.4
# Text: If test compounds are instable under these conditions, transmetallation during this test would lead to the formation of the Zn^2+ complex of the test item, while Gd^3+ is released and precipitated as highly insoluble GdPO4.
# [2] = Water solubility in aqueous buffer; details: aqueous buffer 10 mM Tris-HCl, pH 7.4, 20° C.
# Protocol: The solid compounds were added stepwise to the buffer solution. More substance is added once all the suspended material is dissolved until an equilibrium between undissolved and dissolved substance is reached. The suspension was mixed using a shaker (Heidolph Reax 2000) and treated 5 min in an ultrasound bath (Bandelin, Sonorex Super RK255H).
# [3] = Relaxivity measurements at 1.41 T in water; type: physicochemical; details: 37° C., normalized to Gd
# How it was run: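 T1 by inversion recovery and T2 by CPMG at 1.41 T (60 MHz), 37° C, relaxation delay ≥5×T1. Three Gd concentrations between 0.05 and 2 mM; relaxivities derived from measured relaxation rates in water.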
# plasma proteins = assay: Plasma protein binding, equilibrium dialysis, dog; type: in vitro ADME
# Text: The binding of Example 1 and 15 to plasma proteins of different species (human, dog, monkey, rabbit, mouse and rat) was investigated in vitro by using equilibrium dialysis in reusable 96-well Micro-Equilibrium Dialysis Devices (ht dialysis) (Banker M J et al. J Pharm Sci. 2003 May; 92 (5): 967-74).
Structure (SMILES),Uptake into OATP1B3-HEK 293 cells (OATP1B3),Inhibition Rifampicine (OATP1B3) [% inhibition],Transmetallation stability [1] [%],Solubility [2] [mM],r1 water [3] [L/mmol/s],Fraction unbound fu (plasma proteins) [%]
"CCOc1ccc(CC(CN(CCN(CC(=O)[O-])CC(=O)[O-])CC(=O)[O-])N(CC(=O)[O-])CC(=O)[O-])cc1.[Gd+3].[Na+].[Na+] (stereo not drawn) [RC1, gadoxetate disodium, reference compound]",100 % of RC1,99,44,>250,–,–
"CCOc1ccc(CCOCC(C(=O)O)N2CCN(CC(=O)[O-])CCN(CC(=O)[O-])CCN(CC(=O)[O-])CC2)cc1.[Gd+3] (stereo not drawn) [Example 1, gadolinium 2,2′,2″-(10-{1-carboxy-2-[2-(4-ethoxyphenyl)ethoxy]ethyl}-1,4,7,10-tetraazacyclododecane-1,4,7-triyl)triacetate]",24 % of RC1,97,99,>258,4.1,96
"CCOCCOCCOc1ccc(CCC[C@@H](C(=O)O)N2CCN([C@@H](CO)C(=O)[O-])CCN([C@@H](CO)C(=O)[O-])CCN([C@@H](CO)C(=O)[O-])CC2)cc1.[Gd+3] [Example 15, gadolinium (2S,2′S,2″S)-2,2′,2″-{10-[(1S)-1-carboxy-4-{4-[2-(2-ethoxyethoxy)ethoxy]phenyl}butyl]-1,4,7,10-tetraazacyclododecane-1,4,7-triyl}tris(3-hydroxypropanoate)]",–,98,101,>500,5.1,91
"CCOCCOCCOc1ccc(CC(C(=O)O)N2CCN(CC(=O)[O-])CCN(CC(=O)[O-])CCN(CC(=O)[O-])CC2)cc1.[Gd+3] (stereo not drawn) [Example 2, gadolinium 2,2′,2″-{10-[1-carboxy-2-{4-[2-(2-ethoxyethoxy)ethoxy]phenyl}ethyl]-1,4,7,10-tetraazacyclododecane-1,4,7-triyl}triacetate]",56 % of RC1,80,100,>757,4.4,>95
